Legend:
[1] = system: HCT116 human colon cancer cells; experiment: Cell proliferation / cell death, HCT116; type: cell-based; conditions: concentration gradient of peptide, OD measurement (Figure S1i)
Description: Cells were seeded in 96‐well plates at a density of 5000 cells per well in 100 µL complete growth medium. Following a 24‐hour incubation period (37 °C, 5% CO2) to permit cell adherence, the culture medium was replaced with fresh low serum contained complete medium containing either Insig1/2 loop1 peptide (0–100 µM concentration range) or PBS. Cells were maintained under these conditions for 72 hours. After treatment, the culture medium was carefully aspirated, and cells were washed twice with 200 µL phosphate‐buffered saline (PBS, pH 7.4). Fixed was performed using 4% paraformaldehyde (100 µL/well) for 15 min at room temperature, followed by three PBS washes (200 µL/well) to remove residual fixative. 0.1% (w/v) crystal violet staining solution was prepared by dissolving crystal violet powder in 10% ethanol, followed by filtration through a 0.22 µm membrane. Each well received 80 µL of staining solution and was incubated for 15 min at room temperature, protected from light. […] Plates were agitated at 200 rpm for 10 min to ensure complete dissolution before measuring absorbance at 582 nm using a microplate reader. […]
i-k) (i) HCT116, (j) Huh7, and (k) Hep3B cells were exposed to a concentration gradient of Insig1/2 loop1 peptide, and cell proliferation was quantified by optical density (OD) measurements.

[2] = Safety in mice: H&E staining of organs and blood examination; type: in vivo; conditions: given iv as LNPs, 10 mg/kg
Description: c-k) The LNP@Insig1/2 loop 1 peptide or PBS (control) was administered intravenously to 6-week-old nude mice (n = 4 per group) at a dose of 10 mg kg^-1 body weight. (c)Mice heart, liver, spleen, lung and kidney were harvested for H&E staining (scale bar: 50 μm). Mouse blood was collected for (d) ALT, (e) AST, (f) ALB, (g) ALP, (h) BUN, (i) UA, (j) CR, (k) CK analysis. ALT, alanine aminotransferase; AST, aspartate transaminase; ALB, albumin; ALP, alkaline phosphatase; BUN, blood urea nitrogen; UA, uric acid; CR, creatinine; CK, creatine kinase. Data are expressed as mean ± SD. Comparisons between the two groups were performed using Student's t-test.

Huh7 cells = experiment: Cell proliferation, Huh7; type: cell-based, human; conditions: peptide 25 µM 1 h, IGF1 100 ng/mL 72 h, automated cell counting, n = 3
[3] = system: lipid accumulation in tumor tissues; experiment: Oil Red O staining of tumor tissues; type: in vivo, BALB/c athymic nude mice; conditions: cryosections of Huh7 tumors, n = 4; peptide given as LNP 10 mg/kg iv; lenvatinib mesylate 2 mg/kg oral
Description: Representative micrographs are shown (scale bar: 20 µm). b,c) Cryosections of mouse tumor tissues were prepared for histological analysis. (b) Lipid accumulation was assessed by Oil Red O staining. Representative micrographs are shown (scale bar: 20 µm). (c) Apoptotic cells were detected by TUNEL assay. Representative micrographs are shown (scale bar: 20 µm). d,e) Quantitative analysis of (d) apoptotic areas (TUNEL‐positive regions) and (e) lipid droplet counts (Oil Red O‐positive particles) was performed. Data represent the mean ± SD (n = 4). Statistical significance was determined by one‐way analysis of variance (ANOVA). ** p < 0.01, **** p < 0.0001, ns, no significance.
Cryosections 6–8 µm in thickness were air‐dried and fixed with formaldehyde for 5–10 min. Then, the slides were placed in absolute propylene glycol for 2–5 min and stained with 0.5% Oil red O dye. After staining, the slides were rinsed, counterstained with Mayer's hematoxylin for 1 min, and mounted in glycerin.

[4] = biological target: T1, binding of PCK1 to Insig1 (Homo sapiens, UniProt P35558); experiment: Immunoprecipitation of IGF1-induced PCK1-Insig1 binding, Hep3B; type: cell-based; design: expressed in transfected cells; conditions: Flag-PCK1-expressing Hep3B cells, peptide 15 μM 1 h before IGF1 100 ng/mL
T1 sequence (P35558 1-622): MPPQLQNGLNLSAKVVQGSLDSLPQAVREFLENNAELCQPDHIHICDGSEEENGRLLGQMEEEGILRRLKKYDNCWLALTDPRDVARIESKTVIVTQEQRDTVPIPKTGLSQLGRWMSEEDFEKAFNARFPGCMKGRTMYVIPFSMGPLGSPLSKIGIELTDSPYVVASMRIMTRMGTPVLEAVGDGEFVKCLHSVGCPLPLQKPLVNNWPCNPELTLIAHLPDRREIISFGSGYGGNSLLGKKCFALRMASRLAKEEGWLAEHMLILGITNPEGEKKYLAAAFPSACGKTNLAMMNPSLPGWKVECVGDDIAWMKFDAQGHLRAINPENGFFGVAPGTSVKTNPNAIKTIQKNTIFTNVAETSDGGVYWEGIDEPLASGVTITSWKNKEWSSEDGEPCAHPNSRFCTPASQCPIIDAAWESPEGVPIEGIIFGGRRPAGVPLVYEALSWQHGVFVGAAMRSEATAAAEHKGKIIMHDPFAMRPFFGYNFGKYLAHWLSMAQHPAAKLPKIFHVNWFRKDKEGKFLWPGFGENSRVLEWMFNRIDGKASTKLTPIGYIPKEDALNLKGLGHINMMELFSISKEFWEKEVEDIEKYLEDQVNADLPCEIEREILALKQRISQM
Description: Cellular proteins were extracted using ice‐cold lysis buffer [50 mM Tris‐HCl (pH 7.5), 150 mM NaCl, 0.1% SDS, 1% Triton X‐100, 1 mM DTT, 0.5 mM EDTA] supplemented with protease inhibitor cocktail (Roche) and phosphatase inhibitors (Bimake). Following lysis, cell extracts were centrifuged at 13400 × g for 15 min at 4 °C to remove cellular debris. The clarified supernatants were then incubated with primary antibodies overnight at 4 °C with gentle rotation. For Flag‐tagged protein immunoprecipitation, Flag M2 magnetic beads (Sigma) were added to the lysate‐antibody mixture and incubated for an additional 4 h at 4 °C. The immunocomplexes were washed three times with lysis buffer under stringent conditions (5 min per wash with rotation). Finally, the precipitated proteins were eluted and analyzed by immunoblotting as previously described.^[ [35] ^]
d) Flag-PCK1-expressing Hep3B cells were pre-treated with Insig1/2 loop 1 peptide (15 μM) for 1 h before IGF1 (100 ng ml⁻¹) stimulation.

RKKRRQRRRLYPCIDSHLGEPHKFKRE [Insig1/2 loop 1 peptide]
cell death [1]: induced cell death
toxicity (overall conclusion) [2]: limited toxicity
IGF1-induced increase in proliferation (Huh7 cells): inhibited
lipid accumulation in tumor tissues (Oil Red O) [3]: reduced lipid accumulation in tumor tissues
IGF1-induced binding of PCK1 to Insig1 [4]: markedly inhibited

— article PMC12677653, “Inhibition of Tumor Lipogenesis and Growth by Peptide‐Based Targeting of SREBP Activation” (Advanced Science, 2025)
